Data: patent US20080221086A1, “Novel Inhibitors of Glutaminyl Cyclase” (PROBIODRUG AG, priority 2006, published 2008)
Read-outs that look alike come from different tables or passages of the source.

Target: hQC (Homo sapiens, UniProt Q16769)
Experiment: Fluorometric assay of glutaminyl cyclase (QC) inhibition, H-Gln-βNA or H-Gln-AMC substrate
Assay type: biochemical
In short: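 Fluorometric coupled assays at 30° C in Tris/HCl pH 8.0 with EDTA and pyroglutamyl aminopeptidase used either 0.2 mM H-Gln-βNA (320/410 nm) or H-Gln-AMC (380/460 nm), started by QC. Screening used 4 mM inhibitor at substrate 1 KM. Ki came from fitting progress curves to competitive inhibition.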

Sequence of hQC (Q16769 29-361): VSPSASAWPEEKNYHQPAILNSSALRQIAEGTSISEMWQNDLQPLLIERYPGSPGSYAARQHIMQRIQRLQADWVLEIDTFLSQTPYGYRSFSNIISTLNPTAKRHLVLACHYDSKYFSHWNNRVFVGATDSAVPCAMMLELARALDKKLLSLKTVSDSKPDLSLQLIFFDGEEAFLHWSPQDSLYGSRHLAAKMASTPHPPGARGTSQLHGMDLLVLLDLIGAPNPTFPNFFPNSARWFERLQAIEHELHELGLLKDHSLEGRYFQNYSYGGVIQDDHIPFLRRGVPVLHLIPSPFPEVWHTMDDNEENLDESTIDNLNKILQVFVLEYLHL

Row | IC50 (read-out: IC50) | IC50 (compound from preparative synthesis, purified by chromatography, fluorescent assay, read-out: IC50 hQC) | Compound
1 | 0.004 µM |  | CN(C)c1ccc(C2/C(=N/C3CCc4ccccc43)NC(=O)N2c2ccc3[nH]cnc3c2)cc1 (centres unmarked) [Compound 242, 1-(1H-Benzoimidazol-5-yl)-5-(4-dimethylamino-phenyl)-4-indan-1-ylimino-imidazolidin-2-one]
2 | 5.8 µM |  | CC1=CC(C)C(C2/C(=N/CC(=O)N3CCCN(C)CC3)NC(=O)N2c2ccc3[nH]cnc3c2)CC1 (centres unmarked) [Compound 243, 1-(1H-Benzoimidazol-5-yl)-5-(2,4-dimethyl-cyclohex-3-enyl)-4-2-(4-methyl-1,4diazepan-1-yl)-2-oxo-ethylimino-imidazolidin-2-one]
3 | 0.4 µM |  | O=C1N/C(=N\C2CCCC2)C(c2cc(F)cc(F)c2)N1c1ccc2[nH]cnc2c1 (centres unmarked) [Compound 244, 1-(1H-Benzoimidazol-5-yl)-4-cyclopentylimino-5-(3,5-difluoro-phenyl)-imidazolidin-2-one]
4 | 7.6 µM |  | CCc1ccccc1/N=C1\NC(=O)N(c2ccc3[nH]cnc3c2)C1c1ccccc1 (centres unmarked) [Compound 245, 1-(1H-Benzoimidazol-5-yl)-4-2-ethyl-phenylimino-5-phenyl-imidazolidin-2-one]
5 | 7.6 µM |  | O=C1N/C(=N\C2CCCC2)C(c2coc3ccccc3c2=O)N1c1ccc2[nH]cnc2c1 (centres unmarked) [Compound 246, 1-(1H-Benzoimidazol-5-yl)-4-cyclopentylimino-5-(4-oxo-4H-chromen-3-yl)-imidazolidin-2-one]
6 | 3.1 µM |  | O=C1CCCN1CCC/N=C1\NC(=O)N(c2ccc3[nH]cnc3c2)C1c1ccnc2ccccc12 (centres unmarked) [Compound 247, 1-(1H-Benzoimidazol-5-yl)-4-3-(2-oxo-pyrrolidin-1-yl)-propylimino-5-quinolin-4-yl-imidazolidin-2-one]
7 | 0.4 µM |  | O=C(C/N=C1/NC(=O)N(c2ccc3nc[nH]c3c2)C1c1ccc2[nH]ccc2c1)N1CCC(O)CC1 (centres unmarked) [Compound 248, 1-(3H-Benzoimidazol-5-yl)-4-2-(4-hydroxy-piperidin-1-yl)-2-oxo-ethylimino-5-(1H-indol-5-yl)-imidazolidin-2-one]
8 | 5.8 µM |  | COC(=O)C(C)/N=C1\NC(=S)N(c2ccc3[nH]cnc3c2)C1c1ccc(C)cc1 (centres unmarked) [Compound 249, Methyl 2-(1-(1H-benzo[d]imidazol-5-yl)-2-thioxo-5-p-tolylimidazolidin-4-ylideneamino)propanoate]
9 | 4.9 µM |  | O=C(C/N=C1\NC(=O)N(c2ccc3nc[nH]c3c2)C1c1c(F)ccc(Cl)c1F)N1CCCCC1 (centres unmarked) [Compound 250, 1-(3H-Benzoimidazol-5-yl)-5-(3-chloro-2,6-difluoro-phenyl)-4-2-oxo-2-piperidin-1-yl-ethylimino-imidazolidin-2-one]
10 | 4 µM |  | S=C1N/C(=N/Cc2ccccc2)C(c2ccc(Cl)cc2)N1c1ccc2[nH]cnc2c1 (centres unmarked) [Compound 251, 1-(1H-Benzoimidazol-5-yl)-4-benzylimino-5-(4-chloro-phenyl)-imidazolidine-2-thione]
11 | 7.6 µM |  | O=C1CCCN1CCC/N=C1\NC(=S)N(c2ccc3[nH]cnc3c2)C1c1cc2ccccc2s1 (centres unmarked) [Compound 252, 1-(3-(5-(benzo[b]thiophen-2-yl)-1-(1H-benzo[d]imidazol-5-yl)-2-thioxoimidazolidin-4-ylideneamino)propyl)pyrrolidin-2-one]
12 | 9.4 µM |  | Cc1cccc(C2/C(=N/CCCN(C)C)NC(=O)N2c2ccc3[nH]cnc3c2)c1 (centres unmarked) [Compound 253, 4-(3-(Dimethylamino)propylimino)-1-(1H-benzo[d]imidazol-5-yl)-5-m-tolylimidazolidin-2-one]
13 | 0.004 µM | 0.997 µM | CC1=CC(C)C(C2/C(=N/C(C)C)NC(=O)N2c2ccc3[nH]cnc3c2)CC1 (centres unmarked) [Compound 254, 1-(1H-Benzoimidazol-5-yl)-5-(2,4-dimethyl-cyclohex-3-enyl)-4-(isopropylimino)-imidazolidin-2-one]
14 | 6.7 µM |  | O=C1CCCN1CCC/N=C1/NC(=S)N(c2ccc3[nH]cnc3c2)C1c1ccc2c(c1)OCO2 (centres unmarked) [Compound 255, 1-(3-(5-(benzo[d][1,3]dioxol-5-yl)-1-(1H-benzo[d]imidazol-5-yl)-2-thioxoimidazolidin-4-ylideneamino)propyl)pyrrolidin-2-one]
15 | 9.4 µM |  | S=C1N/C(=N\C2CCCC2)C(c2ccc3ccccc3c2)N1c1ccc2[nH]cnc2c1 (centres unmarked) [Compound 256, 1-(1H-Benzoimidazol-5-yl)-4-cyclopentylimino-5-naphthalen-2-yl-imidazolidine-2-thione]
16 | 0.4 µM |  | Cc1nc[nH]c1C1/C(=N/C2CCc3ccccc32)NC(=O)N1c1ccc2nc[nH]c2c1 (centres unmarked) [Compound 257, 3-(3H-Benzoimidazol-5-yl)-5-indan-1-ylimino-5′-methyl-1,3,4,5-tetrahydro-3′H-4,4′biimidazolyl-2-one]
17 | 3.1 µM |  | S=C1N/C(=N/CCCc2ccccc2)C(c2cc3ccccc3s2)N1c1ccc2[nH]cnc2c1 (centres unmarked) [Compound 258, 5-Benzobthiophen-2-yl-1-(1H-benzoimidazol-5-yl)-4-3-phenyl-propylimino-imidazolidine-2-thione]
18 | 2.2 µM |  | CC1=CC(C)C(C2/C(=N/c3ccc4c(c3)OCCO4)NC(=O)N2c2ccc3[nH]cnc3c2)CC1 (centres unmarked) [Compound 259, 1-(1H-Benzoimidazol-5-yl)-4-2,3-dihydro-benzo1,4dioxin-6-ylimino-5-(2,4-dimethyl-cyclohex-3-enyl)-imidazolidin-2-one]
19 | 3.1 µM |  | S=C1N/C(=N/CCc2cccs2)C(c2cc3ccccc3s2)N1c1ccc2[nH]cnc2c1 (centres unmarked) [Compound 260, 5-Benzobthiophen-2-yl-1-(1H-benzoimidazol-5-yl)-4-2-thiophen-2-yl-ethylimino-imidazolidine-2-thione]
20 | 6.7 µM |  | S=C1N/C(=N/Cc2ccccc2)C(c2cccc(Br)c2)N1c1ccc2[nH]cnc2c1 (centres unmarked) [Compound 261, 1-(1H-Benzoimidazol-5-yl)-4-benzylimino-5-(3-bromo-phenyl)-imidazolidine-2-thione]
21 | 1.3 µM |  | Cc1ccc(C2/C(=N/C(C)(C)CC(C)(C)C)NC(=O)N2c2ccc3nc[nH]c3c2)c(C)c1 (centres unmarked) [Compound 262, 1-(3H-Benzoimidazol-5-yl)-5-(2,4-dimethyl-phenyl)-4-1,1,3,3-tetramethyl-butylimino-imidazolidin-2-one]
22 | 1.3 µM |  | Cc1ccc2occ(C3/C(=N/CCCN4CCOCC4)NC(=O)N3c3ccc4[nH]cnc4c3)c(=O)c2c1 (centres unmarked) [Compound 263, 1-(1H-Benzoimidazol-5-yl)-5-(6-methyl-4-oxo-4H-chromen-3-yl)-4-3-morpholin-4-yl-propylimino-imidazolidin-2-one]
23 | 8.5 µM |  | S=C1N/C(=N\c2ccccc2Br)C(c2ccc3ccccc3c2)N1c1ccc2nc[nH]c2c1 (centres unmarked) [Compound 264, 1-(3H-Benzoimidazol-5-yl)-4-2-bromo-phenylimino-5-naphthalen-2-yl-imidazolidine-2-thione]
24 | 8.5 µM |  | O=C(C/N=C1/NC(=O)N(c2ccc3[nH]cnc3c2)C1C1=CCCCC1)N1CCSCC1 (centres unmarked) [Compound 265, 1-(1H-Benzoimidazol-5-yl)-5-cyclohex-1-enyl-4-2-oxo-2-thiomorpholin-4-yl-ethylimino-imidazolidin-2-one]
25 | 8.5 µM |  | S=C1N/C(=N\C2CCCCC2)C(c2cc3c(cc2Br)OCO3)N1c1ccc2nc[nH]c2c1 (centres unmarked) [Compound 266, 1-(3H-Benzoimidazol-5-yl)-5-(6-bromo-benzo1,3dioxol-5-yl)-4-cyclohexylimino-imidazolidine-2-thione]
